Data reported in patent US9469650B2, “Melampomagnolide B derivatives” (BOARD OF TRUSTEES OF THE UNIVERSITY OF ARKANSAS, priority 2013, dated 2016).

How the values were obtained:
[1] = system: A549/ATCC; assay: panel of 60 human tumor cell lines, growth inhibition (Non-Small Cell Lung Cancer); conditions: for Percent Growth: A549/ATCC
[2] = system: M14; assay: panel of 60 human tumor cell lines, growth inhibition (Melanoma)
[3] = system: SNB-75; assay: panel of 60 human tumor cell lines, growth inhibition (CNS Cancer)
[4] = system: MDA-MB-231/ATCC; assay: panel of 60 human tumor cell lines, growth inhibition (Breast Cancer); conditions: for Percent Growth: MDA-MB-231/ATCC
[5] = system: LOX IMVI; assay: panel of 60 human tumor cell lines, growth inhibition (Melanoma)
[6] = system: CAKI-1; assay: panel of 60 human tumor cell lines, growth inhibition (Renal Cancer)
[7] = system: MOLT-4; assay: panel of 60 human tumor cell lines, growth inhibition (Leukemia)
[8] = system: SW-620; assay: panel of 60 human tumor cell lines, growth inhibition (Colon Cancer); conditions: for GI50: SW-620, SW-620; for Percent Growth: SW-620
[9] = system: NCI/ADR-RES; assay: panel of 60 human tumor cell lines, growth inhibition (Ovarian Cancer)

## C=C1C(=O)O[C@H]2[C@H]1CC/C(COC(=O)NCCc1ccccn1)=C\CC[C@@]1(C)O[C@@H]21 [JVM 61, ((1aR,7aS,10aS,10bS,E)-1a-methyl-8-methylene-9-oxo-1a,2,3,6,7,7a,8,9,10a,10b-decahydrooxireno[2′,3′:9,10]cyclodeca[1,2-b]furan-5-yl)methyl-(2-(pyridin-2-yl)ethyl)carbamate]
[1]; Log10 Concentration −4.0
  Percent Growth: −54%
[1]; Log10 Concentration −5.0
  Percent Growth: 64%
[1]; Log10 Concentration −6.0
  Percent Growth: 6.7%
[1]; Log10 Concentration −8.0
  Percent Growth: 95%
[1]; Homo sapiens, A549
  GI50: 13.1 µM
[1]; Homo sapiens, A549, read-out: LC50
  CC50: 92 µM
[1]; Homo sapiens, A549, read-out: TGI
  IC (TGI): 34.7 µM
[2]; Homo sapiens, M14
  GI50: 5.58 µM
[2]; Homo sapiens, M14, read-out: LC50
  CC50: 66.7 µM
[2]; Homo sapiens, M14, read-out: TGI
  IC (TGI): 21.6 µM
[2]; M14, Log10 Concentration −4.0
  Percent Growth: −68%
[2]; M14, Log10 Concentration −5.0
  Percent Growth: 34%
[2]; M14, Log10 Concentration −6.0
  Percent Growth: 97%
[2]; M14, Log10 Concentration −7.0
  Percent Growth: 102%
[2]; M14, Log10 Concentration −8.0
  Percent Growth: 100%
[3]; Homo sapiens, SNB-75
  GI50: 3.78 µM
[3]; Homo sapiens, SNB-75, read-out: LC50
  CC50: 48.4 µM
[3]; Homo sapiens, SNB-75, read-out: TGI
  IC (TGI): 18.6 µM
[3]; SNB-75, Log10 Concentration −4.0
  Percent Growth: −88%
[3]; SNB-75, Log10 Concentration −5.0
  Percent Growth: 32%
[3]; SNB-75, Log10 Concentration −6.0
  Percent Growth: 74%
[3]; SNB-75, Log10 Concentration −7.0
  Percent Growth: 76%
[3]; SNB-75, Log10 Concentration −8.0
  Percent Growth: 81%
[4]; Homo sapiens, MDA-MB-231
  GI50: 11.4 µM
[4]; Homo sapiens, MDA-MB-231, read-out: LC50
  CC50: 56.4 µM
[4]; Homo sapiens, MDA-MB-231, read-out: TGI
  IC (TGI): 25.4 µM
[4]; Log10 Concentration −4.0
  Percent Growth: −86%
[4]; Log10 Concentration −5.0
  Percent Growth: 58%
[4]; Log10 Concentration −6.0
  Percent Growth: 96%
[4]; Log10 Concentration −7.0
  Percent Growth: 100%
[4]; Log10 Concentration −8.0
  Percent Growth: 103%
[5]; Homo sapiens
  GI50: 4.96 µM
[5]; Homo sapiens, 5-dose assay
  GI50: 4.96 µM
[5]; Homo sapiens, read-out: LC50
  CC50: 58.2 µM
[5]; Homo sapiens, read-out: TGI
  IC (TGI): 19.4 µM
[5]; Log10 Concentration −4.0
  Percent Growth: −75%
[5]; Log10 Concentration −5.0
  Percent Growth: 30%
[5]; Log10 Concentration −6.0
  Percent Growth: 96%
[5]; Log10 Concentration −7.0
  Percent Growth: 102%
[5]; Log10 Concentration −8.0
  Percent Growth: 99%
[6]; CAKI-1, Log10 Concentration −4.0
  Percent Growth: −83%
[6]; CAKI-1, Log10 Concentration −5.0
  Percent Growth: 6%
[6]; CAKI-1, Log10 Concentration −6.0
  Percent Growth: 88%
[6]; CAKI-1, Log10 Concentration −7.0
  Percent Growth: 93%
[6]; CAKI-1, Log10 Concentration −8.0
  Percent Growth: 99%
[6]; Homo sapiens, CAKI-1
  GI50: 2.88 µM
[6]; Homo sapiens, CAKI-1, read-out: LC50
  CC50: 42.8 µM
[6]; Homo sapiens, CAKI-1, read-out: TGI
  IC (TGI): 11.7 µM
[7]; Homo sapiens, MOLT-4
  GI50: 5.54 µM
[7]; Homo sapiens, MOLT-4, read-out: LC50
  CC50: > 100 µM
[7]; Homo sapiens, MOLT-4, read-out: TGI
  IC (TGI): 25 µM
[7]; MOLT-4, Log10 Concentration −4.0
  Percent Growth: −47%
[7]; MOLT-4, Log10 Concentration −5.0
  Percent Growth: 31%
[7]; MOLT-4, Log10 Concentration −6.0
  Percent Growth: 105%
[7]; MOLT-4, Log10 Concentration −7.0
  Percent Growth: 106%
[7]; MOLT-4, Log10 Concentration −8.0
  Percent Growth: 106%
[8]; Homo sapiens
  GI50: 3.13 µM
[8]; Homo sapiens, 5-dose assay
  GI50: 3.13 µM
[8]; Homo sapiens, SW-620, read-out: LC50
  CC50: 54.5 µM
[8]; Homo sapiens, SW-620, read-out: TGI
  IC (TGI): 12.3 µM
[8]; Log10 Concentration −4.0
  Percent Growth: −70%
[8]; Log10 Concentration −5.0
  Percent Growth: 7%
[8]; Log10 Concentration −6.0
  Percent Growth: 92%
[8]; Log10 Concentration −7.0
  Percent Growth: 105%
[8]; Log10 Concentration −8.0
  Percent Growth: 109%
[9]; Homo sapiens
  GI50: 20.1 µM
[9]; Homo sapiens, read-out: LC50
  CC50: > 100 µM
[9]; Homo sapiens, read-out: TGI
  IC (TGI): 54.7 µM
[9]; Log10 Concentration −4.0
  Percent Growth: −30%
[9]; Log10 Concentration −5.0
  Percent Growth: 85%
[9]; Log10 Concentration −6.0
  Percent Growth: 106%
[9]; Log10 Concentration −7.0
  Percent Growth: 106%
[9]; Log10 Concentration −8.0
  Percent Growth: 105%
